Values after ≈ are worked out from the molar mass of the structure shown. Read-outs that look alike come from different tables or passages of the source.
What was measured:
Type in all cases: cell-based
[1] = tested on: MSSA (ATCC 25923); assay: Broth microdilution MIC, MSSA ATCC 25923; settings: Staphylococcus aureus
[2] = tested on: MRSA (ATCC 33591); assay: Broth microdilution MIC, MRSA ATCC 33591; settings: Staphylococcus aureus; Tables 2-4; standardized conditions
Experimental: General information—Biological Assays. Methicillin-resistant and methicillin sensitive Staphylococcus aureus (MRSA and MSSA respectively) strains were obtained from the Laboratory of Professor Christian Melander (NCSU) (ATCC BAA 44 and 33591) and Dr. Jessica Gilbertie (ATCC 25923). Bacteria were kept in frozen stocks on glycerol at −80° C. until use. Bacteria was streaked onto tryptic-soy agar for colony isolation. Mueller-Hinton broth (MHB, 211443-BD), tryptic soy broth (TSB, Remel: R455052) and D-glucose (CAS: 492-62-6) were purchased from Fisher Scientific. Tryptic soy agar (TSA, cat. #22091) and Linezolid (cat. #P70014) were purchased from Sigma-Aldrich. Bacteria for biofilm inhibition were cultured overnight in TSB-G (tryptic soy broth with 0.5% glucose supplement) in 96 well plates. All assays were run in duplicate and repeated at least two separate times for MIC assays and at least three separate times for biofilm inhibition. All compounds were dissolved in molecular biology grade DMSO as 10 mM stock solutions. Optical densities were measured using a Thermo Scientific Genesys 20 spectrophotometer. Data for biofilm inhibition were collected using a BioTek ELx808 Microplate Reader. All graphs were generated and analyzed using GraphPad Prism 7.
Broth microdilution method for determination of minimum inhibitory concentrations. As prescribed by the Clinical and Laboratory Standards Institute (CLSI) M07-A8, Vol. 29 (2) MSSA (ATCC 25923) and MRSA (ATCC BAA 44 and 33591) was grown in MHB for 6-8 h; this culture was used to inoculate fresh MHB (5×10^5 CFU/mL). The resulting bacterial suspension was aliquoted (1 mL) into 1.5 mL Eppendorf tubes and compound was added from a 10 mM DMSO stock to achieve the desired initial starting concentration (typically 128 μg/mL). Linezolid (from a 10 mM DMSO stock) was used as a positive control. Inoculated media not treated with compound served as the negative control. The MIC was determined by microbroth dilution following the CLSI guidelines. The MIC was defined as the lowest concentration of antibiotic with no visible growth. The plate was sealed and incubated under stationary conditions at 37° C.
The antimicrobial activity of Compounds 1-15 was assessed initially against MSSA (ATCC 25923) and MRSA (ATCC 33591) strains. It was observed that almost all these compounds precipitated in aqueous solution at concentrations equal or higher than 8-16 μg/mL. In order to obtain preliminary results on the antimicrobial activity for these compounds, the standard conditions of the antimicrobial assays used where modified to favor the water solubility of these compounds.

[3] = tested on: S. aureus 29213; assay: Broth microdilution MIC, S. aureus 29213; settings: Staphylococcus aureus
[4] = Tables 2-4, standardized conditions, read-out: MIC (S. aureus 25923)
[5] = Table 2, standardized conditions, read-out: MIC (S. aureus 25913)

Row | SMILES | MIC ([1]; antibiotic alone, read-out: MIC value against MSSA ATCC 25923) | MIC [1, 4] | MIC [2] | MIC [3, 5] | MIC ([3]; Tables 3-4, standardized conditions, read-out: MIC (S. aureus 29213))
1 | O=C(O)c1cn(C2CC2)c2cc(N3CCNCC3)c(F)cc2c1=O [Ciprofloxacin, ciprofloxacin, reference compound] | 0.5 µg/mL (≈ 1.51 µM) |  |  |  | 
2 | CCC1C(c2ccc(C(F)(F)F)cc2)=C(O)C(=O)N1C1CCC(N)CC1 (centres unmarked) [Compound 19, 1-((1r,4r)-4-Aminocyclohexyl)-5-ethyl-3-hydroxy-4-(4-(trifluoromethyl)phenyl)-1,5-dihydro-2H-pyrrol-2-one] |  | 64 µg/mL (≈ 174 µM) | 128 µg/mL (≈ 347 µM) | 128 µg/mL (≈ 347 µM) | 
3 | CCC1C(c2ccc(C(F)(F)F)cc2)=C(O)C(=O)N1c1ccc(N)cc1 (centres unmarked) [Compound 20, 1-(4-Aminophenyl)-5-ethyl-3-hydroxy-4-(4-(trifluoromethyl)phenyl)-1,5-dihydro-2H-pyrrol-2-one] |  | > 128 µg/mL | 64 µg/mL (≈ 177 µM) | > 128 µg/mL | 
4 | CCC1C(c2ccc(C(F)(F)F)cc2)=C(O)C(=O)N1CCOCCOCCOCCN (centres unmarked) [Compound 22, 1-(2-(2-(2-(2-Aminoethoxy)ethoxy)ethoxy)ethyl)-5-ethyl-3-hydroxy-4-(4-(trifluoromethyl)phenyl)-1,5-dihydro-2H-pyrrol-2-one] |  | > 128 µg/mL | > 128 µg/mL | > 128 µg/mL | 
5 | CCC1C(c2ccc(C(F)(F)F)cc2)=C(O)C(=O)N1CCCNCCCCNCCCN (centres unmarked) [Compound 24, 1-(3-((4-((3-Aminopropyl)amino)butyl)amino)propyl)-5-ethyl-3-hydroxy-4-(4-(trifluoromethyl)phenyl)-1,5-dihydro-2H-pyrrol-2-one] |  | 8 µg/mL (≈ 17.5 µM) | 16 µg/mL (≈ 35 µM) | 16 µg/mL (≈ 35 µM) | 
6 | CCC1C(c2ccc(C(F)(F)F)cc2)=C(O)C(=O)N1CCCNCCCCNCCCN1C(=O)C(O)=C(c2ccc(C(F)(F)F)cc2)C1CC (centres unmarked) [Compound 33, 1,1′-((Butane-1,4-diylbis(azanediyl))bis(propane-3,1-diyl))bis(5-ethyl-3-hydroxy-4-(4-(trifluoromethyl)phenyl)-1,5-dihydro-2H-pyrrol-2-one)] |  | 4 µg/mL (≈ 5.63 µM) |  | 4 µg/mL (≈ 5.63 µM) | 
7 | O=C1C(O)=C(c2ccc(C(F)(F)F)cc2)C([C@H](O)c2ccccc2)N1c1ccc(Br)cc1 (stereo partly drawn) [Compound 47, 1-(4-Bromophenyl)-3-hydroxy-5-((R)-hydroxy(phenyl)methyl)-4-(4-(trifluoromethyl)phenyl)-1,5-dihydro-2H-pyrrol-2-one] |  |  | 8 µg/mL (≈ 15.9 µM) |  | 8 µg/mL (≈ 15.9 µM)

Next, values leading:

Row | MIC ([1]; antibiotic alone, read-out: MIC value against MSSA ATCC 25923) | MIC [1, 4] | MIC [2] | MIC [3, 5] | MIC ([3]; Tables 3-4, standardized conditions, read-out: MIC (S. aureus 29213)) | SMILES
8 |  | 128 µg/mL (≈ 407 µM) | > 128 µg/mL | 128 µg/mL (≈ 407 µM) |  | CCC1C(c2ccc(C(F)(F)F)cc2)=C(O)C(=O)N1CCN (centres unmarked) [Compound 16, 1-(2-Aminoethyl)-5-ethyl-3-hydroxy-4-(4-(trifluoromethyl)phenyl)-1,5-dihydro-2H-pyrrol-2-one]
9 |  | > 128 µg/mL | > 128 µg/mL | > 128 µg/mL |  | CCC1C(c2ccc(C(F)(F)F)cc2)=C(O)C(=O)N1CCCCN (centres unmarked) [Compound 17, 1-(4-Aminobutyl)-5-ethyl-3-hydroxy-4-(4-(trifluoromethyl)phenyl)-1,5-dihydro-2H-pyrrol-2-one]
10 |  | > 128 µg/mL | > 128 µg/mL | > 128 µg/mL |  | CCC1C(c2ccc(C(F)(F)F)cc2)=C(O)C(=O)N1CCCCCCN (centres unmarked) [Compound 18, 1-(6-Aminohexyl)-5-ethyl-3-hydroxy-4-(4-(trifluoromethyl)phenyl)-1,5-dihydro-2H-pyrrol-2-one]
11 |  | > 128 µg/mL | > 128 µg/mL | > 128 µg/mL |  | CCC1C(c2ccc(C(F)(F)F)cc2)=C(O)C(=O)N1CCOCCN (centres unmarked) [Compound 21, 1-(2-(2-Aminoethoxy)ethyl)-5-ethyl-3-hydroxy-4-(4-(trifluoromethyl)phenyl)-1,5-dihydro-2H-pyrrol-2-one]
12 |  | 16 µg/mL (≈ 40.1 µM) | 32 to 64 µg/mL (≈ 80.1 to 160 µM) | 64 µg/mL (≈ 160 µM) |  | CCC1C(c2ccc(C(F)(F)F)cc2)=C(O)C(=O)N1CCCNCCCCN (centres unmarked) [Compound 23, 1-(3-((4-Aminobutyl)amino)propyl)-5-ethyl-3-hydroxy-4-(4-(trifluoromethyl)phenyl)-1,5-dihydro-2H-pyrrol-2-one]

Reference: patent US20250326718A1, “4-PHENYL-2-PYRROLIDINONES AND METHODS OF USING THEREOF” (North Carolina State University, priority 2022, published 2025)
